Results published in US20250155354A1, “METHOD AND DEVICE FOR HIGH THROUGHPUT CELL DEFORMABILITY MEASUREMENTS” (THE REGENTS OF THE UNIVERSITY OF CALIFORNIA, priority 2010, published 2025).

Test system: cervical carcinoma cells (HeLa)
Test: Cell deformability measurement of drug-treated HeLa cells in microfluidic extensional flow (cytoskeletal disruption)
Format: cell-based
Protocol: Still referring to FIG. 4, post-processing (operation 450) is conducted on the data 80 to determine cell size, cell deformation, and cell circularity. The cells 50 passing through the system 10 may either be of a known phenotype or an unknown phenotype as illustrated by operation 400. As part of the post processing operation 450, the size of the cell 50 prior to entering the extensional region 40 is determined. The cell diameter (d) is determined as the average of the minimum cell diameters at […] to horizontal prior to entering the extensional region 40 (approximately four (4) frames prior to entering extension region 40). By taking the size measurements from the vertical axis, noise due to blur attributed to high velocities in the horizontal direction is reduced. As the cell 50 enters the extension region 40 and changes trajectory the deformability and circularity parameters are measured. In the frame where the largest deformation is calculated, the corresponding circularity is recorded as well. The deformability parameter is determined by the ratio a/b of the maximum diameter (a) in the vertical direction at 90°±30° to the minimum diameter (b) in the horizontal direction at 0°±30°. The circularity parameter is calculated by (4πA/L^2) wherein A is the area of the observed cell and L is the perimeter of the cell. […]

Structure (SMILES) | cell deformability (a/b) versus untreated HeLa control (HeLa cells incubated in 0.1 μM Latrunculin A for 4 hours prior to deformability assay) | cell deformability (a/b) versus untreated HeLa control (HeLa cells incubated in 2 μM nocodazole for 1 hour prior to deformability assay)
C/C1=C/C(=O)O[C@@H]2C[C@@H](CC[C@H](C)/C=C\C=C\CC1)O[C@@](O)([C@@H]1CSC(=O)N1)C2 [Latrunculin, Latrunculin A] | significantly more deformable | –
COC(=O)Nc1nc2ccc(C(=O)c3cccs3)cc2[nH]1 [Nocodazole] | – | more rigid than untreated cells
